Literature values, collected in patent US20220023398A1, “COMPOSITIONS AND METHODS FOR TREATING THYROID DISEASE” (Script Essentials, LLC, priority 2015, published 2022).

What was measured:
[1] = supplementation, even in selenium sufficient patients
[2] = after oral supplementation
[3] = participants with low T3, normal T4

SMILES: [Se] [selenium]
- thyroid peroxidase (TPO) antibody levels in the blood [1]: reduced

SMILES: O=S(=O)([O-])[O-].[Zn+2] [zinc sulfate]
- TSH [2, 3]: normalized
- reverse T3 (rT3) [2, 3]: decreased
- levels of T3 ([2]; participants with low T3, normal T4, mild to moderate zinc deficiency): normalized
